Test results as given in ChEMBL document CHEMBL4483862, “Open-source discovery of chemical leads for next-generation chemoprotective antimalarials” (2018).

Tested on: Plasmodium berghei
Test: Luciferase/luciferin-expressing antifolate-resistant parasites were used to infect a culture of HepG2 cells that were pre-incubated with compounds. Infected hepatocytes emit light due to the luciferase reaction. Assay results are presented as the percent inhibition of light emission compared to control. […]
Assay type: functional
Settings: sporozoite; for IC90: read-out: LUCIFERASE INFECTION ASSAY - IC90

SMILES | IC90 | also measured
CC(=O)c1c(C)[nH]c(C(=O)Nc2ccc(C)c(S(=O)(=O)Nc3ccc(C)cc3C)c2)c1C | > 10 µM | IC50 (HEPG2TOX_HILL_SLOPE 7.64, HEPG2TOX_R_SQUARED 0.623, PBLUC_HILL_SLOPE 8.53, PBLUC_R_SQUARED 0.404, read-out: LUCIFERASE INFECTION ASSAY - IC50): 9.43 µM
NC(Cc1ccccc1)c1csc(Nc2ccc(C(=O)c3ccccc3)cc2)n1 (configuration not stated) | 1.15 µM | IC50 (HEPG2TOX_HILL_SLOPE 7.62, HEPG2TOX_R_SQUARED 0.882, PBLUC_HILL_SLOPE 15.6, PBLUC_R_SQUARED 0.562, read-out: LUCIFERASE INFECTION ASSAY - IC50): 1 µM
FC(F)(F)c1nc2ccccc2nc1N/N=C/c1ccc(Cl)cc1 | 9.28 µM | IC50 (HEPG2TOX_HILL_SLOPE 7.63, HEPG2TOX_R_SQUARED 0.926, PBLUC_HILL_SLOPE 14.9, PBLUC_R_SQUARED 0.207, read-out: LUCIFERASE INFECTION ASSAY - IC50): 8 µM
CCC(C)(C)c1ccc(Oc2ccc(NC(=O)Nc3ccccc3OC)cc2)cc1 | 5.8 µM | IC50 (HEPG2TOX_HILL_SLOPE 7.52, 1.98, HEPG2TOX_R_SQUARED 0.307, 0.635, PBLUC_HILL_SLOPE 2.78, 0.762, PBLUC_R_SQUARED 0.525, 0.659, read-out: LUCIFERASE INFECTION ASSAY - IC50): 1.08 µM
CCOC(=O)c1ccc(N2C(=O)c3ccccc3C(C=NNC(=O)Cc3ccc(F)cc3)C2=O)cc1 (configuration not stated) | > 10 µM | IC50 (HEPG2TOX_HILL_SLOPE 7.51, HEPG2TOX_R_SQUARED 0.875, PBLUC_HILL_SLOPE 2.71, PBLUC_R_SQUARED 0.377, read-out: LUCIFERASE INFECTION ASSAY - IC50): 8.78 µM
CC(C)(C)c1ccc(-c2nnc(SCC(=O)Nc3sccc3C(N)=O)n2C2CCCC2)cc1 | > 10 µM | IC50 (HEPG2TOX_HILL_SLOPE 7.51, 0.572, HEPG2TOX_R_SQUARED 0.693, 0.490, PBLUC_HILL_SLOPE 1.93, PBLUC_R_SQUARED 0.568, read-out: LUCIFERASE INFECTION ASSAY - IC50): 4.92 µM
COC(=O)c1cnc(Sc2ccc(C(F)(F)F)cn2)c([N+](=O)[O-])c1 | > 9.18 µM | IC50 (HEPG2TOX_HILL_SLOPE 7.53, HEPG2TOX_R_SQUARED 0.667, PBLUC_HILL_SLOPE 5.12, PBLUC_R_SQUARED 0.221, read-out: LUCIFERASE INFECTION ASSAY - IC50): > 9.18 µM
CN1/C(=C\C(=O)CSc2nnc3c(n2)[nH]c2ccccc23)C(C)(C)c2ccccc21 | > 10 µM | IC50 (HEPG2TOX_HILL_SLOPE 7.55, HEPG2TOX_R_SQUARED 0.316, read-out: LUCIFERASE INFECTION ASSAY - IC50): > 10 µM
COc1cc(-c2cnc3cnc(-c4ccccc4Cl)cn23)cc(OC)c1OC | > 8.34 µM | IC50 (HEPG2TOX_HILL_SLOPE 7.56, HEPG2TOX_R_SQUARED 0.703, PBLUC_HILL_SLOPE 2.2, PBLUC_R_SQUARED 0.686, read-out: LUCIFERASE INFECTION ASSAY - IC50): 6.11 µM
Cc1cc(N2CCN(C(=O)c3cc(C4CC4)nn3-c3ccccc3)CC2)nc(C(C)C)n1 | > 10 µM | IC50 (HEPG2TOX_HILL_SLOPE 7.58, HEPG2TOX_R_SQUARED 0.717, PBLUC_HILL_SLOPE 1.92, PBLUC_R_SQUARED 0.299, read-out: LUCIFERASE INFECTION ASSAY - IC50): 4.83 µM
Cc1c(C(=O)N2CCN(c3cc(C#N)ccn3)CC2)[nH]c2c1C(=O)CCC2 | > 10 µM | IC50 (HEPG2TOX_HILL_SLOPE 7.54, HEPG2TOX_R_SQUARED 0.56, read-out: LUCIFERASE INFECTION ASSAY - IC50): > 10 µM
O=C(c1cccs1)N1CCN(Cc2csc(C3CCCCC3)n2)CC1 | > 10 µM | IC50 (HEPG2TOX_HILL_SLOPE 7.59, HEPG2TOX_R_SQUARED 0.857, PBLUC_HILL_SLOPE 2.36, PBLUC_R_SQUARED 0.0477, read-out: LUCIFERASE INFECTION ASSAY - IC50): 5.47 µM
Cc1cc(C)c(S(=O)(=O)N(Cc2cccc3ccccc23)c2c(C)n(C)n(-c3ccccc3)c2=O)c(C)c1 | 9.71 µM | IC50 (HEPG2TOX_HILL_SLOPE 7.62, HEPG2TOX_R_SQUARED 0.586, PBLUC_HILL_SLOPE 20.2, PBLUC_R_SQUARED 0.47, read-out: LUCIFERASE INFECTION ASSAY - IC50): 8.71 µM
Cc1cc(C)c(C)c(S(=O)(=O)N2CCC(C(=O)Nc3nnc(-c4ccccc4)o3)CC2)c1C | > 10 µM | IC50 (HEPG2TOX_HILL_SLOPE 7.53, HEPG2TOX_R_SQUARED 0.782, PBLUC_HILL_SLOPE 3.42, PBLUC_R_SQUARED 0.39, read-out: LUCIFERASE INFECTION ASSAY - IC50): 6.89 µM
CCOC(=O)c1c(C)oc(-c2ccc(Cl)cc2)c1S(=O)(=O)Nc1cccc(C)c1 | > 7.61 µM | IC50 (HEPG2TOX_HILL_SLOPE 7.66, HEPG2TOX_R_SQUARED 0.177, read-out: LUCIFERASE INFECTION ASSAY - IC50): > 7.61 µM
COCCNc1cc(C)nc2c(-c3ccc(C)cc3)c(C)nn12 | > 10.6 µM | IC50 (HEPG2TOX_HILL_SLOPE 7.65, HEPG2TOX_R_SQUARED 0.721, PBLUC_HILL_SLOPE 1.1, PBLUC_R_SQUARED 0.545, read-out: LUCIFERASE INFECTION ASSAY - IC50): 3.65 µM

SMILES | IC90 | also measured
COc1ccccc1-c1cc(-c2cccc(C(F)(F)F)c2)cnc1N | > 9.58 µM | IC50 (HEPG2TOX_HILL_SLOPE 7.68, HEPG2TOX_R_SQUARED 0.737, read-out: LUCIFERASE INFECTION ASSAY - IC50): > 9.58 µM
COc1ccc(N2C(=O)C(=O)N(Cc3c(C)cc(C(C)(C)C)cc3C)C2=O)cc1 | 7.85 µM | IC50 (HEPG2TOX_HILL_SLOPE 7.7, HEPG2TOX_R_SQUARED 0.735, PBLUC_HILL_SLOPE 4.71, PBLUC_R_SQUARED 0.498, read-out: LUCIFERASE INFECTION ASSAY - IC50): 4.92 µM
Cc1cccc(-n2cc(-c3ccccc3)c3c(N4CCN(C)CC4)ncnc32)c1 | > 10 µM | IC50 (HEPG2TOX_HILL_SLOPE 7.66, HEPG2TOX_R_SQUARED 0.38, PBLUC_HILL_SLOPE 2.7, PBLUC_R_SQUARED 0.572, read-out: LUCIFERASE INFECTION ASSAY - IC50): 6.64 µM
CC(Sc1nnc(-c2ccc(C(C)(C)C)cc2)o1)C(=O)Nc1ncc(Cl)cc1Cl (configuration not stated) | 3.61 µM | IC50 (HEPG2TOX_HILL_SLOPE 7.53, HEPG2TOX_R_SQUARED 0.526, PBLUC_HILL_SLOPE 15.5, PBLUC_R_SQUARED 0.267, read-out: LUCIFERASE INFECTION ASSAY - IC50): 3.13 µM
COc1cccc(Nc2nccc3nc(-c4ccc(F)c(F)c4)[nH]c23)c1 | > 10 µM | IC50 (HEPG2TOX_HILL_SLOPE 7.52, HEPG2TOX_R_SQUARED 0.793, PBLUC_HILL_SLOPE 2.32, PBLUC_R_SQUARED 0.606, read-out: LUCIFERASE INFECTION ASSAY - IC50): 4.06 µM
Cc1cc(C(=O)CSc2nnc(C3CC3)[nH]2)c(C)n1-c1cccc(C(F)(F)F)c1 | > 10 µM | IC50 (HEPG2TOX_HILL_SLOPE 7.7, HEPG2TOX_R_SQUARED 0.0445, PBLUC_HILL_SLOPE 1.16, PBLUC_R_SQUARED 0.631, read-out: LUCIFERASE INFECTION ASSAY - IC50): 3.51 µM
CCc1ccc2nc(NC(=O)c3nccnc3N)sc2c1 | > 10 µM | IC50 (HEPG2TOX_HILL_SLOPE 7.58, HEPG2TOX_R_SQUARED 0.761, PBLUC_HILL_SLOPE 15.5, PBLUC_R_SQUARED 0.446, read-out: LUCIFERASE INFECTION ASSAY - IC50): 9.33 µM
O=C(Nc1cc(Cl)ccc1O)c1ccccc1CSc1ccc(Cl)cc1 | 7.79 µM | IC50 (HEPG2TOX_HILL_SLOPE 7.65, HEPG2TOX_R_SQUARED 0.733, PBLUC_HILL_SLOPE 11.9, PBLUC_R_SQUARED 0.0529, read-out: LUCIFERASE INFECTION ASSAY - IC50): 6.47 µM
COc1ccc(N(Cc2c(C#N)c(C)nn2-c2ccccc2)S(=O)(=O)c2ccc(C)cc2)cc1 | > 10 µM | IC50 (HEPG2TOX_HILL_SLOPE 7.62, HEPG2TOX_R_SQUARED 0.552, PBLUC_HILL_SLOPE 10, PBLUC_R_SQUARED 0.432, read-out: LUCIFERASE INFECTION ASSAY - IC50): 9.18 µM
COc1ccc(Nc2ccn3ncc(-c4ccc(N(C)C)cc4)c3n2)cn1 | 5.31 µM | IC50 (HEPG2TOX_HILL_SLOPE 7.66, HEPG2TOX_R_SQUARED 0.327, PBLUC_HILL_SLOPE 65.7, PBLUC_R_SQUARED 0.275, read-out: LUCIFERASE INFECTION ASSAY - IC50): 5.14 µM
CCN(CC)c1ccc(/C=C(\C#N)C(=O)Nc2cccc(S(=O)(=O)N3CCCCC3)c2)cc1 | > 10 µM | IC50 (HEPG2TOX_HILL_SLOPE 7.51, HEPG2TOX_R_SQUARED 0.401, PBLUC_HILL_SLOPE 2.56, PBLUC_R_SQUARED 0.302, read-out: LUCIFERASE INFECTION ASSAY - IC50): 9.36 µM
S=C(N/N=C/c1ccccn1)Nc1ccc(Cl)c(Cl)c1 | > 10.1 µM | IC50 (HEPG2TOX_HILL_SLOPE 7.56, HEPG2TOX_R_SQUARED 0.274, PBLUC_HILL_SLOPE 6.84, PBLUC_R_SQUARED 0.4, read-out: LUCIFERASE INFECTION ASSAY - IC50): 7.65 µM
Cc1ccc(Nc2ncccc2C(=O)Nc2nc3ccccc3[nH]2)c(C)c1 | 7.9 µM | IC50 (HEPG2TOX_HILL_SLOPE 7.67, HEPG2TOX_R_SQUARED 0.775, PBLUC_HILL_SLOPE 5.03, PBLUC_R_SQUARED 0.402, read-out: LUCIFERASE INFECTION ASSAY - IC50): 5.1 µM
Cc1cnc(NC(=O)c2ccc(N(C)C3CCCCC3)cc2)s1 | 0.327 µM | IC50 (HEPG2TOX_HILL_SLOPE 7.67, HEPG2TOX_R_SQUARED 0.65, PBLUC_HILL_SLOPE 1.69, PBLUC_R_SQUARED 0.349, read-out: LUCIFERASE INFECTION ASSAY - IC50): 0.0892 µM
O=C(Nc1cc(S(=O)(=O)c2ccccc2)cs1)c1ccc(Cl)cc1 | 5.49 µM | IC50 (HEPG2TOX_HILL_SLOPE 7.57, HEPG2TOX_R_SQUARED 0.801, PBLUC_HILL_SLOPE 3.36, PBLUC_R_SQUARED 0.445, read-out: LUCIFERASE INFECTION ASSAY - IC50): 2.85 µM
